IC50 data for 25 molecules are collected here from patent publication US9273057B2 (Bristol-Myers Squibb Company, priority 2012, dated 2016).

Structures are written as SMILES.

In this assay the target is CK2A1 (CK2α/β) (Homo sapiens, UniProt P68400). Nature of the assay: CK2 kinase assay, CK2A1 (CK2α/β). The assay is classed as biochemical. The note with it: Table A; read-out: CK2A1 (CK2α/β) (IC50).
Sequence of CK2A1 (CK2α/β) (P68400 whole entry, species assumed): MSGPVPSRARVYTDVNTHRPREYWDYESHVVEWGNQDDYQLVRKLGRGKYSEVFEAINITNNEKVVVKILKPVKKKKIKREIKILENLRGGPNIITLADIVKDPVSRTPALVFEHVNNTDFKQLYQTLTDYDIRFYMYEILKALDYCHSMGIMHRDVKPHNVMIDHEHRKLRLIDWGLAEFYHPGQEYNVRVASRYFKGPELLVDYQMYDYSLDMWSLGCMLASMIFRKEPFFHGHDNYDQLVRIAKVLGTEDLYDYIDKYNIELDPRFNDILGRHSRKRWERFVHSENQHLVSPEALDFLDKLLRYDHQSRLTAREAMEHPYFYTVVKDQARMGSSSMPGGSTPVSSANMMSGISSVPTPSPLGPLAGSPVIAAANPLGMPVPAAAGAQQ
Sequence of CK2A1 (CK2α/β) (P67870 whole entry partner, species assumed): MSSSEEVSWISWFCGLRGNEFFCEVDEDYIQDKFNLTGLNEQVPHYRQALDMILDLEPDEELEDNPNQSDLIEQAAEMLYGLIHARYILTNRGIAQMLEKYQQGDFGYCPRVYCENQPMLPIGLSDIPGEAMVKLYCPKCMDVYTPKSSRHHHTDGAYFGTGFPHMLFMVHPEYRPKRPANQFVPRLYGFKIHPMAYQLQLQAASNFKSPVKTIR
As to `CC1(O)CN(C2CCN(c3cc(C(F)F)cc(Nc4nc(NC5CC5)c5ncc(C#N)n5n4)c3Cl)CC2)C1` [Example 257, 2-((2-chloro-5-(difluoromethyl)-3-(4-(3-hydroxy-3-methyl-1-azetidinyl)-1-piperidinyl)phenyl)amino)-4-(cyclopropylamino)imidazo[2,1-f][1,2,4]triazine-7-carbonitrile], the IC50 came to 0.97 nM.

As to `CC(C)(CO)N1CCC(c2cc(C#N)cc(Nc3nc(NC4CC4)c4ncc(C#N)n4n3)c2Cl)CC1` [Example 643, 2-((2-chloro-5-cyano-3-(1-(1-hydroxy-2-methylpropan-2-yl)piperidin-4-yl)phenyl)amino)-4-(cyclopropylamino)imidazo[2,1-f][1,2,4]triazine-7-carbonitrile], the IC50 was found to be 2.12 nM.

On to `C[N+]1(C)CCN(C2CN(c3cc(C#N)cc(Nc4nc(NC5CC5)c5ncc(C#N)n5n4)c3Cl)C2)CC1` [Example 170, 4-(1-(2-chloro-5-cyano-3-((7-cyano-4-(cyclopropylamino)imidazo [2,1-f][1,2,4]triazin-2-yl)amino)phenyl)-3-azetidinyl)-1,1-dimethylpiperazin-1-ium], for which the IC50 worked out at 0.93 nM.

With `N#Cc1cnc2c(NC3CC3)nc(Nc3cc(C(F)F)cc(N4CCN(C5CCOCC5)CC4)c3Cl)nn12` [Example 247, 2-((2-chloro-5-(difluoromethyl)-3-(4-(tetrahydro-2H-pyran-4-yl)-1-piperazinyl)phenyl)amino)-4-(cyclopropylamino)imidazo[2,1-f][1,2,4]triazine-7-carbonitrile], the IC50 was found to be 1.74 nM.

On to `N#Cc1cc(Nc2nc(NC3CC3)c3ncc(C#N)n3n2)c(F)c(N2CCN(CC(O)CF)CC2)c1` (stereo not shown) [Example 549, 2-((5-cyano-2-fluoro-3-(4-(3-fluoro-2-hydroxypropyl)piperazin-1-yl)phenyl)amino)-4-(cyclopropylamino)imidazo[2,1-f][1,2,4]triazine-7-carbonitrile], for which the IC50 is 1.25 nM.

Consider `CC(O)CN1CCC2CCN(c3cc(C#N)cc(Nc4nc(NC5CC5)c5ncc(C#N)n5n4)c3Cl)CC21` (racemic) [Example 460, (+/−)-2-((2-chloro-5-cyano-3-(1-(2-hydroxypropyl)hexahydro-1H-pyrrolo[2,3-c]pyridin-6(2H)-yl)phenyl)amino)-4-(cyclopropylamino)imidazo[2,1-f][1,2,4]triazine-7-carbonitrile], for which the IC50 was 1.62 nM.

Regarding `C[N+]1([O-])CCN(C2CN(c3cc(C#N)cc(Nc4nc(NC5CC5)c5ncc(C#N)n5n4)c3Cl)C2)CC1` [Example 169, 2-((2-chloro-5-cyano-3-(3-(4-methyl-4-oxido-1-piperazinyl)-1-azetidinyl)phenyl)amino)-4-(cyclopropylamino)imidazo [2,1-f][1,2,4]triazine-7-carbonitrile], the IC50 is 2.59 nM.

As to `CN1CC2(CCN(c3cc(C#N)cc(Nc4nc(NC5CC5)c5ncc(C#N)n5n4)c3Cl)CC2)C1` [Example 798, 2-((2-chloro-5-cyano-3-(2-methyl-2,7-diazaspiro[3.5]nonan-7-yl)phenyl)amino)-4-(cyclopropylamino)imidazo[2,1-f][1,2,4]triazine-7-carbonitrile], the IC50 worked out at 1.8 nM.

On to `CCNc1nc(Nc2ccc3c(c2)c(C#N)cn3C2CCN(C[C@@H](O)CN3CCOCC3)CC2)nn2c(C#N)cnc12` [Example 830, (R)-2-((3-cyano-1-(1-(2-hydroxy-3-morpholinopropyl)piperidin-4-yl)-1H-indol-5-yl)amino)-4-(ethylamino)imidazo[2,1-f][1,2,4]triazine-7-carbonitrile], for which the IC50 worked out at 0.35 nM.

With `N#CCC1(NC2CCN(c3cc(C#N)cc(Nc4nc(NC5CC5)c5ncc(C#N)n5n4)c3Cl)CC2)COC1` (racemic) [Example 114, (+/−) 2-((2-chloro-5-cyano-3-(4-((3-(cyanomethyl)-3-oxetanyl)amino)-1-piperidinyl)phenyl)amino)-4-(cyclopropylamino)imidazo [2,1-f][1,2,4]triazine-7-carbonitrile], the IC50 came out at 1.57 nM.

For the molecule `CC1(N2CCOCC2)CCN(c2cc(C(F)F)cc(Nc3nc(NC4CC4)c4ncc(C#N)n4n3)c2Cl)CC1` [Example 244, 2-((2-chloro-5-(difluoromethyl)-3-(4-methyl-4-(4-morpholinyl)-1-piperidinyl)phenyl)amino)-4-(cyclopropylamino)imidazo[2,1-f][1,2,4]triazine-7-carbonitrile], the IC50 worked out at 0.97 nM.

As for `COC(=O)NCC1CN(c2cc(C#N)cc(Nc3nc(NC4CC4)c4ncc(C#N)n4n3)c2Cl)CCN1C` (stereo not shown) [Example 713, methyl N-{[4-(2-chloro-5-cyano-3-{[7-cyano-4-(cyclopropylamino)imidazo[2,1-f][1,2,4]triazin-2-yl]amino}phenyl)-1-methylpiperazin-2-yl]methyl}carbamate], the IC50 was 5.48 nM.

`CC(C)(CO)NCc1cc(C#N)cc(Nc2nc(NC3CC3)c3ncc(C#N)n3n2)c1Cl` [Example 674, 2-((2-chloro-5-cyano-3-(((1-hydroxy-2-methylpropan-2-yl)amino)methyl)phenyl)amino)-4-(cyclopropylamino)imidazo[2,1-f][1,2,4]triazine-7-carbonitrile]: the IC50 was determined as 1.74 nM.

On to `CC(=O)NCC(=O)N1CC(N2CCN(c3cc(C#N)cc(Nc4nc(NC5CC5)c5ncc(C#N)n5n4)c3Cl)CC2)C1` [Example 492, N-(2-{3-[4-(2-chloro-5-cyano-3-{[7-cyano-4-(cyclopropylamino)imidazo[2,1-f][1,2,4]triazin-2-yl]amino}phenyl)piperazin-1-yl]azetidin-1-yl}-2-oxoethyl)acetamide], for which the IC50 was determined as 0.64 nM.

For the molecule `COC(=O)N[C@H]1CCN(c2cc(C#N)cc(Nc3nc(NC4CC4)c4ncc(C#N)n4n3)c2Cl)C[C@@H]1NCC(F)F` [Example 748, methyl ((3S,4S)-1-(2-chloro-5-cyano-3-((7-cyano-4-(cyclopropylamino)imidazo[2,1-f][1,2,4]triazin-2-yl)amino)phenyl)-3-((2,2-difluoroethyl)amino)piperidin-4-yl)carbamate], the IC50 was determined as 1.4 nM.

Turning to `CCNc1nc(Nc2cc(C#N)cc(N3C[C@H](NC(=O)OC)[C@@H](OC)C3)c2Cl)nn2c(C#N)cnc12` [Example 333, methyl ((3S,4S)-1-(2-chloro-5-cyano-3-((7-cyano-4-(ethylamino)imidazo [2,1-f][1,2,4]triazin-2-yl)amino)phenyl)-4-methoxy-3-pyrrolidinyl)carbamate], the IC50 came out at 0.46 nM.

`COC(=O)N[C@@H]1CCN(c2cc(C#N)cc(Nc3nc(NC4CC4)c4ncc(C#N)n4n3)c2Cl)C[C@H]1OC(=O)C(C)OP(=O)(O)O` (stereo partly drawn) [Example 197, (3R,4R)-1-(2-chloro-5-cyano-3-((7-cyano-4-(cyclopropylamino)imidazo[2,1-f][1,2,4]triazin-2-yl)amino)phenyl)-4-((methoxycarbonyl)amino)-3-piperidinyl 2-(phosphonooxy)propanoate]: the IC50 was found to be 5 nM.

For the molecule `N#Cc1cc(Nc2nc(NC3CC3)c3ncc(C#N)n3n2)c(Cl)c(N2CCN(C3CN(C(=O)CN4CCOCC4)C3)CC2)c1` [Example 493, 2-{[2-chloro-5-cyano-3-(4-{1-[2-(morpholin-4-yl)acetyl]azetidin-3-yl}piperazin-1-yl)phenyl]amino}-4-(cyclopropylamino)imidazo[2,1-f][1,2,4]triazine-7-carbonitrile], the IC50 was 2.03 nM.

As for `N#Cc1cc(Nc2nc(NC3CC3)c3ncc(C#N)n3n2)c(Cl)c(C(O)CN2CCC(O)CC2)c1` (stereo not shown) [Example 688, 2-((2-chloro-5-cyano-3-(1-hydroxy-2-(4-hydroxypiperidin-1-yl)ethyl)phenyl)amino)-4-(cyclopropylamino)imidazo[2,1-f][1,2,4]triazine-7-carbonitrile], the IC50 was 2.4 nM.

For `N#Cc1cc(Nc2nc(NC3CC3)c3ncc(C#N)n3n2)c(Cl)c(C2(O)CCN(C3COC3)CC2)c1` [Example 648, 2-((2-chloro-5-cyano-3-(4-hydroxy-1-(oxetan-3-yl)piperidin-4-yl)phenyl)amino)-4-(cyclopropylamino)imidazo[2,1-f][1,2,4]triazine-7-carbonitrile], the IC50 was found to be 0.85 nM.

As for `COC(=O)N[C@H]1CCN(c2cc(C#N)cc(Nc3nc(NC4CC4)c4ncc(C#N)n4n3)c2Cl)CC1NC(C)C` (stereo in doubt) [Example 752, methyl N-[(3R,4S)-1-(2-chloro-5-cyano-3-{[7-cyano-4-(cyclopropylamino)imidazo [2,1-f][1,2,4]triazin-2-yl]amino}phenyl)-3-[(propan-2-yl)amino]piperidin-4-yl]carbamate], the IC50 amounted to 4.93 nM.

In the case of `CCNc1nc(Nc2cc(C#N)cc(N3CCC(NC4COC4)CC3)c2Cl)nn2c(C#N)cnc12` [Example 363, 2-((2-chloro-5-cyano-3-(4-(oxetan-3-ylamino)piperidin-1-yl)phenyl)amino)-4-(ethylamino)imidazo[2,1-f][1,2,4]triazine-7-carbonitrile], the IC50 amounted to 0.78 nM.

Take `CN1CCN(C2CN(c3cc(C#N)cc(Nc4nc(NC5CC5)c5ncc(C#N)n5n4)c3Cl)C2)CC1=O` [Example 156, 2-((2-chloro-5-cyano-3-(3-(4-methyl-3-oxo-1-piperazinyl)-1-azetidinyl)phenyl)amino)-4-(cyclopropylamino)imidazo [2,1-f][1,2,4]triazine-7-carbonitrile]: the IC50 was found to be 0.36 nM.

As for `COC(=O)N[C@@H]1C[C@@H]2CN(c3cc(C#N)cc(Nc4nc(NC5CC5)c5ncc(C#N)n5n4)c3Cl)C[C@@H]2C1` [Example 13, (+/−) methyl ((3aR,5r,6aS)-2-(2-chloro-5-cyano-3-((7-cyano-4-(cyclopropylamino)imidazo [2,1-f][1,2,4]triazin-2-yl)amino)phenyl)octahydro-cyclopenta[c]pyrrol-5-yl)carbamate], the IC50 came out at 1.7 nM.

Regarding `N#Cc1cc2c(c(Nc3nc(NC4CC4)c4ncc(C#N)n4n3)c1)NCCOCC(=O)N2` [Example 632, 11-((7-cyano-4-(cyclopropylamino)imidazo[2,1-f][1,2,4]triazin-2-yl)amino)-6-oxo-1,2,3,5,6,7-hexahydrobenzo[e][1,4,7]oxadiazonine-9-carbonitrile], the IC50 is 1.45 nM.
